Key:
[1] = target: T1, LasB S241G (Pseudomonas aeruginosa, UniProt P14756, S241G); experiment: LasB variant inhibition, culture supernatant: S241G; format: biochemical, P. aeruginosa
T1 construct: endogenous in cells; host or cells: P. aeruginosa clinical CF isolate, culture supernatant
Description: (§1) Compounds 12 and 16 were discovered as a result of optimizing potency against the LasB protein expressed from the wild-type (WT) reference strain P. aeruginosa PAO1. To understand the relative prevalence of the WT LasB protein versus other variants in clinical respiratory P. aeruginosa strains, the full-length lasB gene was amplified by PCR from 255 clinical isolates (obtained from CF sputum samples). […] Most changes were identified in the mature peptide, however some occurred in the propeptide domain, which could affect LasB processing (marked in italics in Table 4).
(§2) LasB inhibition assays were performed using purified LasB enzyme (1 ng/well) for compound screening or using culture supernatants (prepared as described in the ECR assay) for testing LasB variants. Hydrolysis of the fluorogenic peptide substrate 2-aminobenzoyl-Ala-Gly-Leu-Ala-4-nitrobenzylamide (Abz-AGLA-Nba; Peptide International) in 50 mM Tris-HCl (pH 7.4), supplemented with 2.5 mM CaCl2 was followed using an Envision microplate reader (PerkinElmer) at 315 nm excitation and 430 nm emission. […] IC50 values were determined from Hill plots using Dotmatics Studies ELN software. For the mechanism of inhibition studies, hydrolysis rates were measured in the presence of variable concentrations of substrate and inhibitor, and the inhibition constant (Ki) was determined using Dixon plot analysis.[31]

[2] = target: T2, LasB T65I (Pseudomonas aeruginosa, UniProt P14756); experiment: LasB variant inhibition, culture supernatant: T65I; format: biochemical, P. aeruginosa
T2 construct: endogenous in cells; host or cells: P. aeruginosa clinical CF isolate, culture supernatant
Description: as §1, §2

[3] = target: T3, LasB Q71L (Pseudomonas aeruginosa, UniProt P14756); experiment: LasB variant inhibition, culture supernatant: Q71L; format: biochemical, P. aeruginosa
T3 construct: endogenous in cells; host or cells: P. aeruginosa clinical CF isolate, culture supernatant
Description: as §1, §2

[4] = target: T4, secreted LasB in P. aeruginosa PAO1-infected THP-1 macrophages (Pseudomonas aeruginosa, UniProt P14756); experiment: LasB activity (Sub115 hydrolysis) in supernatants of P. aeruginosa-infected THP-1 macrophages; format: cell-based; conditions: PAO1-infected THP-1 macrophages, 2 h, inhibitor at 4 μM
T4 construct: The mature LasB protein is a 33 kDa metalloprotease, which is secreted from P. aeruginosa; endogenous in cells; host or cells: P. aeruginosa PAO1 infecting human THP-1 macrophages (MOI 10:1); supernatant after 2 h
Experimental: Further to showing in vitro inhibition of LasB-mediated pro-IL-1β proteolysis, experiments were performed to determine the effect of compounds 12 and 16 on IL-1β activation and functionality in human macrophage cell cultures infected with P. aeruginosa PAO1, or an isogenic lasB deletion mutant thereof (ΔlasB). In these experiments, the levels of LasB activity in culture supernatants were measured via hydrolysis of the Sub115 fluorescent peptide, while the effect of LasB activity on IL-1β activation (functionality) was measured using a luciferase reporter cell line sensitive to IL-1β induction (Figure 3).
Human THP-1 macrophages were cultured by conventional methods then, pre-infection, culture media were replaced by RPMI lacking phenol red and antibiotics. Compounds VX-765 (caspase-1 inhibitor, developed by Vertex) and/or LasB inhibitors were added, immediately followed by inoculation with P. aeruginosa PAO1 or an isogenic lasB deletion mutant (ΔlasB), previously grown in Luria broth to late exponential phase (OD600 = 1.2) then washed and diluted in PBS, at a multiplicity of infection (MOI) of 10 to 1. After 2 h post-infection, 50 μL aliquots of supernatant were removed and used to quantitate both LasB activity and IL-1β functionality. To determine LasB activity, 50 μL of supernatant was added to Sub115 IL-1β peptide and hydrolysis of Sub115 was monitored spectrophotometrically with excitation at 355 nm and emission at 450 nm, as described above. Results were expressed as relative fluorescence units (RFU).
In the first variation, experimental infections were performed with P. aeruginosa PAO1 and ΔlasB bacteria incubated with varying quantities of inhibitor at final concentrations ranging from 0.5 to 8 μM. In the second, cells were treated and infected in the same manner and also treated with 5 μM VX-765 to provide a control for IL-1β activation by the inflammasome pathway.

[5] = Mouse pharmacokinetics, lung epithelial lining fluid (ELF); format: in vivo; conditions: for ELF concentration (C0) relative to LasB Ki: 10 mg/kg IV; for Kp / C0 / AUC(0-t) / clearance / half-life: female, ICR (CD-1); for Kp: lung epithelial lining fluid (ELF) and plasma, iv, read-out: lung penetration (AUClast ELF/AUClast plasma); for Kp / lung penetration (AUClast plasma/AUClast ELF): 10 mg/kg; for Kp / C0 / AUC(0-t) / clearance / half-life / lung penetration (AUClast plasma/AUClast ELF): single 10 mg/kg IV dose; for C0 / AUC(0-t) / clearance / half-life: lung epithelial lining fluid (ELF), epithelial lining fluid; for AUC(0-t): read-out: ELF AUClast; for clearance: read-out: ELF CL; for half-life: read-out: ELF t1/2 (converted)
Experimental: The PK parameters of compounds 12 and 16 were investigated in both plasma and lung epithelial lining fluid (ELF) after intravenous (IV) administration of compounds at 10 mg/kg in mice (Figure 4 and Table 5). […] Accordingly, these levels of lung penetration (9.5 and 5.2%, respectively) warranted the evaluation of the compounds in an animal model of lung infection using IV dosing.
Unrestrained, nonanesthetized mice (Female ICR (CD-1); Age 5–6 weeks; Size 22 ± 2 g; specific pathogen-free (SPF)) were injected IV with test article formulations via the tail vein. Animals were sacrificed by cardiac puncture under CO2 euthanasia at 0.08, 0.25, 1, 2, 4, 8, and 24 h post dosing. Blood was drawn into tubes coated with EDTA-K3, mixed gently and plasma was then harvested and kept frozen at −70 °C until further processing. To collect […] (BALF), 0.5 mL of PBS was administered once through a tracheal cannula after which about 0.2 to 0.3 mL of BALF was obtained. The BALF was kept on ice and centrifuged within 1 h of collection and the supernatant was harvested and kept frozen at −70 °C. Plasma and BALF samples were analyzed by LC-MS/MS (AB SCIEX API 3000 mass spectrometer). The apparent ELF volume of each BALF sample was estimated using urea as an endogenous marker of the ELF dilution. The urea concentrations in BALF and plasma samples were determined with the QuantiChrom Urea Assay Kit (DIUR-100) (BioAssay Systems) following the manufacturer’s protocol. For each BALF sample, the drug concentration in ELF was calculated as follows: drug concentrationELF = drug concentrationBALF × (urea concentrationplasma/urea concentrationBALF). The PK parameters of each compound after IV dosing (t1/2, C0, AUClast, and CL) were obtained from the noncompartmental analysis (NCA) of the plasma data using WinNonlin.

T2 sequence (P14756 198-498, stated change not applied): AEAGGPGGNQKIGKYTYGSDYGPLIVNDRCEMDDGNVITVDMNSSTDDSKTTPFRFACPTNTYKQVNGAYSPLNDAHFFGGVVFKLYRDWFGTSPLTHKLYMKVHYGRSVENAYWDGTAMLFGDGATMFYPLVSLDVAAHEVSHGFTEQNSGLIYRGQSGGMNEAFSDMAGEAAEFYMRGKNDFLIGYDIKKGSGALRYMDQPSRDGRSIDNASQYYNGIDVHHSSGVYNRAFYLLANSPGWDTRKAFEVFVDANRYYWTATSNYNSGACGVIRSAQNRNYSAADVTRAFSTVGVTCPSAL
T4 sequence (P14756 198-498): as the sequence (P14756 198-498, stated change not applied) above
T3 sequence (P14756 198-498, stated change not applied): as above
T1 sequence (P14756 198-498 S241G): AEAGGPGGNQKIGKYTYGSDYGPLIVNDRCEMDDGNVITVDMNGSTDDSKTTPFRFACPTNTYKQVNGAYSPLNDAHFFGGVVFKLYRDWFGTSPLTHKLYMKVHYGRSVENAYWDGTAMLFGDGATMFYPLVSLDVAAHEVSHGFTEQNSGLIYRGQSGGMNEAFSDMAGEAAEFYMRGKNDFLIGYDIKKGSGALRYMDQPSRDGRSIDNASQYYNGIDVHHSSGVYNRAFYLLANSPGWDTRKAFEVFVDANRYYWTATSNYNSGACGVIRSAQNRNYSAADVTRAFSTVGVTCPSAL

SMILES | IC50 [1] [nM] | IC50 [2] [nM] | IC50 [3] [nM] | LasB activity in culture supernatant (Sub115 hydrolysis) [4] | ELF concentration (C0) relative to LasB Ki [5] | Kp [5] | C0 [5] [ng/mL] | AUC(0-t) [5] [ng·h/mL] | clearance [5] [mL/min/kg] | half-life [5] [h] | lung penetration (AUClast plasma/AUClast ELF) [5] [%]
COc1cc2sc(CNC(=O)C3(CC(=O)O)Cc4cc(F)c(F)cc4C3)nc2cc1OCCC[N+](C)(CCO)CCO [Compound 16] | 206 | 182 | 177 | complete abolition of activity | over 100 fold | 0.052 | 2700 | 27000 | 5.2 | 9.5 | 5.22
COc1cc2sc(CNC(=O)C3(CC(=O)O)Cc4ccccc4C3)nc2cc1OCCC[N+](C)(C)C [Compound 12] | 221 | 216 | 214 | complete abolition of activity | over 100 fold | 0.095 | 2700 | 57700 | 1.5 | 25.8 | 9.54
